Laboratory results published in US20050075375A1 (priority 2003, published 2005).
Where two headings read alike, the source gives them in different places.

Test system: monocistronic NK5.1 HCV replicon in Huh7 cells
Assay: HCV replicon assay, monocistronic replicon cell line
Format: cell-based, hepatitis C virus
Details: read-out: Mono EC50 Median
Method in brief: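 EC50 derives from the HCV RNA/GAPDH RNA ratio by one-step TaqMan RT-PCR, relative to DMSO-only wells. Compounds (six half-log concentrations, 0.6% DMSO) were incubated 3 days at 37 °C with NK5.1 monocistronic replicon Huh7 cells plated a day earlier.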

[1] = Hepatitis C virus, Huh-7, 72 h, Table 1, monocistronic replicon in Huh7 cells, 3 days incubation, HCV RNA/GAPDH RNA by TaqMan RT-PCR
[2] = Hepatitis C virus, Huh-7, monocistronic NK5.1 HCV replicon in Huh7 cells, median value

| SMILES | EC50 [1] [µM] | EC50 (Table 1, monocistronic replicon in Huh7 cells, 3 days incubation, HCV RNA/GAPDH RNA by TaqMan RT-PCR) [µM] | EC50 [2] [µM] |
| --- | --- | --- | --- |
| Cc1cccnc1-c1noc(-c2ccc([N+](=O)[O-])cc2Cl)n1 [Compound 182, 2-[5-(2-Chloro-4-nitro-phenyl)-[1,2,4]oxadiazol-3-yl]-3-methyl-pyridine] | 12 |  |  |
| COc1ccc2ccccc2c1-c1nc(-c2ncccc2C)no1 [Compound 183] | > 32 |  |  |
| COc1cccc(-c2nc(-c3ncccc3C)no2)c1O [Compound 184, 2-Methoxy-6-[3-(3-methyl-pyridin-2-yl)-[1,2,4]oxadiazol-5-yl]-phenol] | 0.68 |  |  |
| COc1ccc(O)c(-c2nc(-c3ncccc3C)no2)c1 [Compound 185, 4-Methoxy-2-[3-(3-methyl-pyridin-2-yl)-[1,2,4]oxadiazol-5-yl]-phenol] | 1.6 |  |  |
| Cc1cccnc1-c1noc(-c2cc(Cl)ccc2O)n1 [Compound 186, 4-Chloro-2-[3-(3-methyl-pyridin-2-yl)-[1,2,4]oxadiazol-5-yl]-phenol] | 3.9 |  |  |
| Cc1cccnc1-c1noc(-c2cc(F)ccc2O)n1 [Compound 187] |  | 6.5 |  |
| Cc1cccnc1-c1noc(-c2ccccc2O)n1 [Compound 188, 2-[3-(3-Methyl-pyridin-2-yl)-[1,2,4]oxadiazol-5-yl]-phenol] | > 32 |  |  |
| Cc1cccnc1-c1noc(-c2c(O)ccc3ccccc23)n1 [Compound 189, 1-[3-(3-Methyl-pyridin-2-yl)-[1,2,4]oxadiazol-5-yl]-naphthalen-2-ol] | 1.2 |  |  |
| Cc1cccnc1-c1noc(-c2cc(Br)ccc2O)n1 [Compound 190, 4-Bromo-2-[3-(3-methyl-pyridin-2-yl)-[1,2,4]oxadiazol-5-yl]-phenol] | 0.69 |  |  |
| Cc1cccnc1-c1noc(-c2cc([N+](=O)[O-])ccc2Cl)n1 [Compound 191, 2-[5-(2-Chloro-5-nitro-phenyl)-[1,2,4]oxadiazol-3-yl]-3-methyl-pyridine] | 2 |  |  |
| Cc1ccc(O)c(-c2nc(-c3ncccc3C)no2)c1 [Compound 192, 4-Methyl-2-[3-(3-methyl-pyridin-2-yl)-[1,2,4]oxadiazol-5-yl]-phenol] | > 32 |  |  |
| COc1ccc(OC)c(-c2nc(-c3nccc4ccccc34)no2)c1 [Compound 193, 1-[5-(2,5-Dimethoxy-phenyl)-[1,2,4]oxadiazol-3-yl]-isoquinoline] | 1.3 |  |  |
| Cc1ccc(O)c(-c2nc(-c3nccc4ccccc34)no2)c1 [Compound 194, 2-(3-Isoquinolin-1-yl-[1,2,4]oxadiazol-5-yl)-4-methyl-phenol] | > 10 |  |  |
| O=[N+]([O-])c1ccc(O)c(-c2nc(-c3nccc4ccccc34)no2)c1 [Compound 195, 2-(3-Isoquinolin-1-yl-[1,2,4]oxadiazol-5-yl)-4-nitro-phenol] | > 32 |  |  |
| Oc1ccc(O)c(-c2nc(-c3nccc4ccccc34)no2)c1 [Compound 196, 2-(3-Isoquinolin-1-yl-[1,2,4]oxadiazol-5-yl)-benzene-1,4-diol] | > 32 |  |  |
| COc1cccc(-c2nc(-c3nccc4ccccc34)no2)c1 [Compound 197, 1-[5-(3-Methoxy-phenyl)-[1,2,4]oxadiazol-3-yl]-isoquinoline] | > 32 |  |  |
| Oc1ccc(Cl)cc1-c1nc(-c2nccc3ccccc23)no1 [Compound 198, 4-Chloro-2-(3-isoquinolin-1-yl-[1,2,4]oxadiazol-5-yl)-phenol] | > 32 |  |  |
| Oc1ccc(F)cc1-c1nc(-c2nccc3ccccc23)no1 [Compound 199, 4-Fluoro-2-(3-isoquinolin-1-yl-[1,2,4]oxadiazol-5-yl)-phenol] | 1.1 |  |  |
| c1ccc2c(-c3nc(-c4nccc5ccccc45)no3)cccc2c1 [Compound 200, 1-(5-Naphthalen-1-yl-[1,2,4]oxadiazol-3-yl)-isoquinoline] | > 32 |  |  |

| SMILES | EC50 [1] [µM] | EC50 (Table 1, monocistronic replicon in Huh7 cells, 3 days incubation, HCV RNA/GAPDH RNA by TaqMan RT-PCR) [µM] | EC50 [2] [µM] |
| --- | --- | --- | --- |
| CN(C)c1ccc(-c2nc(-c3nccc4ccccc34)no2)c(O)c1 [Compound 201, 5-Dimethylamino-2-(3-isoquinolin-1-yl-[1,2,4]oxadiazol-5-yl)-phenol] | > 32 |  |  |
| COc1ccc(O)c(-c2nc(-c3nccc4ccccc34)no2)c1 [Compound 202, 2-(3-Isoquinolin-1-yl-[1,2,4]oxadiazol-5-yl)-4-methoxy-phenol] | 1.9 |  |  |
| COc1ccc2ccccc2c1-c1nc(-c2nccc3ccccc23)no1 [Compound 203, 1-[5-(2-Methoxy-naphthalen-1-yl)-[1,2,4]oxadiazol-3-yl]-isoquinoline] | 23 |  |  |
| Oc1ccc(Br)cc1-c1nc(-c2nccc3ccccc23)no1 [Compound 204] | 1.6 |  |  |
| COc1ccc(-c2nc(-c3nccc4ccccc34)no2)c(O)c1 [Compound 205, 2-(3-Isoquinolin-1-yl-[1,2,4]oxadiazol-5-yl)-5-methoxy-phenol] | 1 |  |  |
| Oc1ccccc1-c1nc(-c2nccc3ccccc23)no1 [Compound 206] | 1.4 |  |  |
| COc1cccc(-c2nc(-c3ncccc3C(F)(F)F)no2)c1O [Compound 207, 2-Methoxy-6-[3-(3-trifluoromethyl-pyridin-2-yl)-[1,2,4]oxadiazol-5-yl]-phenol] | 17 |  |  |
| COc1ccc(O)c(-c2nc(-c3ncccc3C(F)(F)F)no2)c1 [Compound 208, 4-Methoxy-2-[3-(3-trifluoromethyl-pyridin-2-yl)-[1,2,4]oxadiazol-5-yl]-phenol] | 3.5 |  |  |
| COc1cccc(-c2nc(-c3nccc4ccccc34)no2)c1O [Compound 209, 2-(3-Isoquinolin-1-yl-[1,2,4]oxadiazol-5-yl)-6-methoxy-phenol] | 7.4 |  |  |
| Oc1ccc2ccccc2c1-c1nc(-c2nccc3ccccc23)no1 [Compound 210, 1-(3-Isoquinolin-1-yl-[1,2,4]oxadiazol-5-yl)-naphthalen-2-ol] | 2.4 |  |  |
| COc1ccc(-c2nc(-c3ncccc3C(F)(F)F)no2)c(O)c1 [Compound 211, 5-Methoxy-2-[3-(3-trifluoromethyl-pyridin-2-yl)-[1,2,4]oxadiazol-5-yl]-phenol] | 11 |  | 11 |
| O=[N+]([O-])c1ccc(-c2nc(-c3nccc4ccccc34)no2)c(Cl)c1 [Compound 212] | > 32 |  | > 32 |
| Oc1ccc(Br)cc1-c1nc(-c2ccc(C(F)(F)F)cn2)no1 [Compound 213] | 25 |  | 25 |
| COc1ccc(OC)c(-c2nc(-c3ccc(C(F)(F)F)cn3)no2)c1 [Compound 214, 2-[5-(2,5-Dimethoxy-phenyl)-[1,2,4]oxadiazol-3-yl]-5-trifluoromethyl-pyridine] | 18 |  | 18 |
| O=[N+]([O-])c1cccc(-c2nc(-c3ccc(C(F)(F)F)cn3)no2)c1 [Compound 215, 2-[5-(3-Nitro-phenyl)-[11,2,4]oxadiazol-3-yl]-5-trifluoromethyl-pyridine] | 31 |  | 31 |
| Oc1ccc(O)c(-c2nc(-c3ccc(C(F)(F)F)cn3)no2)c1 [Compound 217, 2-[3-(5-Trifluoromethyl-pyridin-2-yl)-[1,2,4]oxadiazol-5-yl]-benzene-1,4-diol] | 2.1 |  | 2.1 |
| Oc1ccc(Cl)cc1-c1nc(-c2ccc(C(F)(F)F)cn2)no1 [Compound 218, 4-Chloro-2-[3-(5-trifluoromethyl-pyridin-2-yl)-[1,2,4]oxadiazol-5-yl]-phenol] | 18 |  | 18 |
| Oc1ccc(F)cc1-c1nc(-c2ccc(C(F)(F)F)cn2)no1 [Compound 219, 4-Fluoro-2-[3-(5-trifluoromethyl-pyridin-2-yl)-[1,2,4]oxadiazol-5-yl]-phenol] | > 32 |  | > 32 |
